Converted amounts (≈) assume the structure as drawn.
Experiments:
Assay type in all cases: functional
Mycolicibacterium phlei = experiment: Antimycobacterial activity against Mycobacterium phlei ATCC 355 after 1 day by alamar blue assay; conditions: ATCC 355, 24 h
Mycobacterium marinum = experiment: Antimycobacterial activity against Mycobacterium marinum ATCC 927 after 7 days; conditions: ATCC 927, 168 h
[1] = system: Mycolicibacterium smegmatis; experiment: Antimycobacterial activity against Mycobacterium smegmatis ATCC 19420 after 1 day; conditions: ATCC 19420, 24 h

SMILES | MIC (Mycolicibacterium phlei) | MIC (Mycobacterium marinum) | MIC [1]
C=C1C(=O)[C@@]23C(=O)O[C@H]4CCC(C)(C)[C@H]5C(=O)OC[C@@]45[C@@H]2CC[C@@H]1[C@H]3O | 16 µg/mL (≈ 44.4 µM) |  | 
C=C1C(=O)[C@]23[C@H](OC(=O)C4CCCCC4)[C@H]1CC[C@H]2[C@@]12CO[C@]3(O)[C@@H](O)[C@@H]1C(C)(C)CCC2=O | 16 µg/mL (≈ 33.9 µM) |  | 
C=C1C(=O)[C@@]23C(=O)O[C@H]4CCC(C)(C)[C@H]5[C@H](O)OC[C@@]45[C@@H]2CC[C@@H]1[C@H]3O | 32 µg/mL (≈ 88.3 µM) |  | 
C=C1C(=O)[C@]23[C@H](OC(=O)c4ccc(C(F)(F)F)cc4)[C@H]1CC[C@H]2[C@@]12CO[C@]3(O)[C@@H](O)[C@@H]1C(C)(C)CC[C@@H]2OC(C)=O | 16 µg/mL (≈ 27.7 µM) |  | 
C=C1C(=O)[C@]23[C@H](OC(=O)c4ccc(C(F)(F)F)cc4)[C@H]1CC[C@H]2[C@@]12CO[C@]3(O)[C@@H](O)[C@@H]1C(C)(C)CCC2=O | 16 µg/mL (≈ 29.9 µM) |  | 
C=C1C(=O)[C@@]23C(=O)O[C@H]4CCC(C)(C)[C@H]5[C@H](O)OC[C@@]45[C@@H]2CC[C@@H]1[C@H]3OC(=O)c1ccc(C(F)(F)F)cc1 | 8 µg/mL (≈ 15 µM) | 16 µg/mL (≈ 29.9 µM) | 16 µg/mL (≈ 29.9 µM)
C=C1C(=O)[C@]23[C@H](OC(=O)/C=C/c4ccc(F)cc4)[C@H]1CC[C@H]2[C@@]12CO[C@]3(O)[C@@H](O)[C@@H]1C(C)(C)CCC2=O | 8 µg/mL (≈ 15.7 µM) | 64 µg/mL (≈ 125 µM) | 16 µg/mL (≈ 31.3 µM)
C=C1C(=O)[C@]23[C@H](OC(=O)/C=C/c4ccc(F)cc4)[C@H]1CC[C@H]2[C@@]12CO[C@]3(O)[C@@H](O)[C@@H]1C(C)(C)CC[C@@H]2OC(C)=O | 8 µg/mL (≈ 14.4 µM) | 64 µg/mL (≈ 115 µM) | 16 µg/mL (≈ 28.8 µM)
C=C1C(=O)[C@]23[C@H](OC(=O)c4ccc(C(F)(F)F)cc4)[C@H]1CC[C@H]2[C@@]12CO[C@]3(O)[C@@H](O)[C@@H]1C(C)(C)CC[C@@H]2O | 16 µg/mL (≈ 29.8 µM) |  | 
C=C1C(=O)[C@]23[C@H](OC(=O)C45CC6CC(CC(C6)C4)C5)[C@H]1CC[C@H]2[C@@]12CO[C@]3(O)[C@@H](O)[C@@H]1C(C)(C)CC[C@@H]2O | 16 µg/mL (≈ 30.4 µM) |  | 
C=C1C(=O)[C@]23[C@H](OC(=O)c4ccc(F)cc4)[C@H]1CC[C@H]2[C@@]12CO[C@]3(O)[C@@H](O)[C@@H]1C(C)(C)CC[C@@H]2O | 32 µg/mL (≈ 65.8 µM) |  | 
C=C1C(=O)[C@]23[C@H](O)[C@H]1CC[C@H]2[C@@]12CO[C@]3(O)[C@@H](O)[C@@H]1C(C)(C)CC[C@@H]2O [ORIDONIN] | 16 µg/mL (≈ 43.9 µM) | > 64 µg/mL | > 64 µg/mL
C=C1C(=O)[C@]23[C@H](OC(=O)Cc4c[nH]c5ccccc45)[C@H]1CC[C@H]2[C@@]12CO[C@]3(O)[C@@H](O)[C@@H]1C(C)(C)CC[C@@H]2O | 32 µg/mL (≈ 61.3 µM) |  | 
C=C1C(=O)[C@]23[C@H](OC(=O)c4cccnc4)[C@H]1CC[C@H]2[C@@]12CO[C@]3(O)[C@@H](O)[C@@H]1C(C)(C)CC[C@@H]2O | 16 µg/mL (≈ 34.1 µM) |  | 
C=C1C(=O)[C@@]23C(=O)O[C@H]4CCC(C)(C)[C@H]5[C@H](O)OC[C@@]45[C@@H]2CC[C@@H]1[C@H]3OC(C)=O | 32 µg/mL (≈ 79.1 µM) |  | 

More lines, in order of falling MIC (Mycolicibacterium phlei), values ahead:

MIC (Mycolicibacterium phlei) | MIC (Mycobacterium marinum) | MIC [1] | SMILES
8 µg/mL (≈ 22.1 µM) |  |  | C=C1C(=O)[C@]23[C@H](O)[C@H]1CC[C@H]2[C@@]12CO[C@]3(O)[C@@H](O)[C@@H]1C(C)(C)CCC2=O
8 µg/mL (≈ 16.9 µM) |  |  | C=C1C(=O)[C@]23[C@H](OC(=O)C4CCCCC4)[C@H]1CC[C@H]2[C@@]12CO[C@]3(O)[C@@H](O)[C@@H]1C(C)(C)CC[C@@H]2O
8 µg/mL (≈ 15.5 µM) |  |  | C=C1C(=O)[C@]23[C@H](OC(=O)C4CCCCC4)[C@H]1CC[C@H]2[C@@]12CO[C@]3(O)[C@@H](O)[C@@H]1C(C)(C)CC[C@@H]2OC(C)=O
4 µg/mL (≈ 8.5 µM) | 32 µg/mL (≈ 68 µM) | 32 µg/mL (≈ 68 µM) | C=C1C(=O)[C@]23[C@H](OC(=O)c4cnccn4)[C@H]1CC[C@H]2[C@@]12CO[C@]3(O)[C@@H](O)[C@@H]1C(C)(C)CC[C@@H]2O
2 µg/mL (≈ 4.15 µM) | 32 µg/mL (≈ 66.3 µM) | 16 µg/mL (≈ 33.2 µM) | C=C1C(=O)[C@@]23C(=O)O[C@H]4CCC(C)(C)[C@H]5C(=O)OC[C@@]45[C@@H]2CC[C@@H]1[C@H]3OC(=O)c1ccc(F)cc1
2 µg/mL (≈ 4.97 µM) | 64 µg/mL (≈ 159 µM) | 64 µg/mL (≈ 159 µM) | C=C1C(=O)[C@@]23C(=O)O[C@H]4CCC(C)(C)[C@H]5C(=O)OC[C@@]45[C@@H]2CC[C@@H]1[C@H]3OC(C)=O
2 µg/mL (≈ 3.9 µM) | 8 µg/mL (≈ 15.6 µM) | 4 µg/mL (≈ 7.8 µM) | C=C1C(=O)[C@]23[C@H](OC(=O)/C=C/c4ccc(F)cc4)[C@H]1CC[C@H]2[C@@]12CO[C@]3(O)[C@@H](O)[C@@H]1C(C)(C)CC[C@@H]2O
2 µg/mL (≈ 4.08 µM) | 16 µg/mL (≈ 32.6 µM) | 16 µg/mL (≈ 32.6 µM) | C=C1C(=O)[C@]23[C@H](OC(=O)CCCCCCC)[C@H]1CC[C@H]2[C@@]12CO[C@]3(O)[C@@H](O)[C@@H]1C(C)(C)CC[C@@H]2O
2 µg/mL (≈ 3.83 µM) | 32 µg/mL (≈ 61.2 µM) | 16 µg/mL (≈ 30.6 µM) | C=C1C(=O)[C@@]23C(=O)O[C@H]4CCC(C)(C)[C@H]5[C@H](O)OC[C@@]45[C@@H]2CC[C@@H]1[C@H]3OC(=O)/C=C/c1ccc(OC)cc1
2 µg/mL (≈ 4.06 µM) | 32 µg/mL (≈ 65 µM) | 16 µg/mL (≈ 32.5 µM) | C=C1C(=O)[C@@]23C(=O)O[C@H]4CCC(C)(C)[C@H]5[C@H](O)OC[C@@]45[C@@H]2CC[C@@H]1[C@H]3OC(=O)/C=C/c1ccccc1
1 µg/mL (≈ 2.46 µM) | 32 µg/mL (≈ 78.7 µM) | 16 µg/mL (≈ 39.4 µM) | C=C1C(=O)[C@]23[C@H](O)[C@H]1CC[C@H]2[C@@]12CO[C@@]3(O)[C@@H](O)[C@@H]1C(C)(C)CC[C@@H]2OC(C)=O [LASIOKAURIN]
1 µg/mL (≈ 1.8 µM) | 16 µg/mL (≈ 28.8 µM) | 8 µg/mL (≈ 14.4 µM) | C=C1C(=O)[C@]23[C@H](OC(=O)/C=C/c4ccc(OC)c(OC)c4)[C@H]1CC[C@H]2[C@@]12CO[C@]3(O)[C@@H](O)[C@@H]1C(C)(C)CC[C@@H]2O
1 µg/mL (≈ 2.02 µM) | 8 µg/mL (≈ 16.2 µM) | 8 µg/mL (≈ 16.2 µM) | C=C1C(=O)[C@]23[C@H](OC(=O)/C=C/c4ccccc4)[C@H]1CC[C@H]2[C@@]12CO[C@]3(O)[C@@H](O)[C@@H]1C(C)(C)CC[C@@H]2O
0.5 µg/mL (≈ 0.86 µM) | 0.5 µg/mL (≈ 0.86 µM) | 0.125 µg/mL (≈ 0.215 µM) | CN[C@@H]1[C@H](O[C@H]2[C@H](O[C@H]3[C@H](O)[C@@H](O)[C@H](N=C(N)N)[C@@H](O)[C@@H]3N=C(N)N)O[C@@H](C)[C@]2(O)C=O)O[C@@H](CO)[C@H](O)[C@H]1O [STREPTOMYCIN]
0.5 µg/mL (≈ 1.02 µM) | 4 µg/mL (≈ 8.15 µM) | 4 µg/mL (≈ 8.15 µM) | C=C1C(=O)[C@@]23C(=O)O[C@H]4CCC(C)(C)[C@H]5C(=O)OC[C@@]45[C@@H]2CC[C@@H]1[C@H]3OC(=O)/C=C/c1ccccc1
0.5 µg/mL (≈ 0.979 µM) | 16 µg/mL (≈ 31.3 µM) | 16 µg/mL (≈ 31.3 µM) | C=C1C(=O)[C@@]23C(=O)O[C@H]4CCC(C)(C)[C@H]5[C@H](O)OC[C@@]45[C@@H]2CC[C@@H]1[C@H]3OC(=O)/C=C/c1ccc(F)cc1
0.5 µg/mL (≈ 0.953 µM) | 4 µg/mL (≈ 7.62 µM) | 4 µg/mL (≈ 7.62 µM) | C=C1C(=O)[C@]23[C@H](OC(=O)/C=C/c4ccc(OC)cc4)[C@H]1CC[C@H]2[C@@]12CO[C@]3(O)[C@@H](O)[C@@H]1C(C)(C)CC[C@@H]2O
0.5 µg/mL (≈ 0.983 µM) | 4 µg/mL (≈ 7.87 µM) | 4 µg/mL (≈ 7.87 µM) | C=C1C(=O)[C@@]23C(=O)O[C@H]4CCC(C)(C)[C@H]5C(=O)OC[C@@]45[C@@H]2CC[C@@H]1[C@H]3OC(=O)/C=C/c1ccc(F)cc1

— ChEMBL document CHEMBL3286170, “Design, synthesis and antimycobacterial activity evaluation of natural oridonin derivatives” (2014)
